# “Also recorded” adds a separate entry of the source.
# Legend:
# cisplatin model = experiment: Cisplatin model: behavioral assays (von Frey mechanical threshold, paw withdrawal latency from radiant heat); type: in vivo; settings: mice, cisplatin cumulative 23 mg/kg, Compound C 25 or 50 mg/kg/day i.p.
# Description: (§1) Mice were administered a PARP Inhibitor, 2-[(2S)-2-methylpyrrolidin-2-yl]-1H-benzimidazole-4-carboxamide (Compound C) at doses of 25 mg/kg/day or 50 mg/kg/day (i.p.) for two days prior to the initiation of cisplatin. The 50 mg/kg dose of Compound C was administered (i.p.) for two days prior to oxaliplatin administration. After two days of pre-dosing with the PARP Inhibitor, mice were co-administered Compound C with cisplatin or oxaliplatin for 5 days (daily injections, i.p.), followed by 5 days off, followed by 5 daily injections (i.p.). Cumulative dose of cisplatin was 23 mg/kg. Cumulative dose of oxaliplatin was 30 mg/kg. Behavioral assays were performed on all groups of mice before dosing, and then at weeks 3, 6, and 8. Behavioral assays including determining mechanical threshold with von Frey monofilaments, determining, latency to paw withdrawal from a radiant heat source, and number of paw lifts from a cold plate.
# oxaliplatin model = experiment: Oxaliplatin model: behavioral assays (von Frey mechanical threshold, paw lifts from cold plate); type: in vivo; settings: mice, oxaliplatin cumulative 30 mg/kg, Compound C 50 mg/kg i.p.
# Description: as §1
# [1] = tested on: digital nerve SNAP amplitude, cisplatin-treated mice; experiment: Nerve conduction study: sensory nerve action potential (SNAP) recording from the digital nerve after cisplatin; type: in vivo; settings: Example 5, cisplatin 2.3 mg/kg/day i.p., Compound C 25 or 50 mg/kg/day (i.p., bid), week 3, FIG. 9
# Description: Mice were administered a PARP Inhibitor, 2-[(2S)-2-methylpyrrolidin-2-yl]-1H-benzimidazole-4-carboxamide (Compound C), at doses of 25 mg/kg/day or 50 mg/kg/day (i.p., bid), for two days prior to the initiation of cisplatin. After two days or pre-dosing with Compound C, mice were co-dosed with the PARP inhibitor (25 mg/kg/day or 50 mg/kg/day) and cisplatin (2.3 mg/kg/day, i.p.). The dosing regimen consisted for 5 daily co-injections, followed by 5 days off, and then a repeat of 5 daily co-injection. Nerve conduction studies were performed after the final injections in week 3. Sensory nerve action potential (SNAP) recordings were made from the digital nerve. Cisplatin induced a decrease in amplitude in SNAP recording from the digital nerve, an effect that was prevented by 2-[(2S)-2-methylpyrrolidin-2-yl]-1H-benzimidazole-4-carboxamide (Compound C) treatment (FIG. 9).
# [2] = tested on: vincristine model of chemotherapy-induced pain; experiment: Vincristine model of chemotherapy-induced pain: mechanical threshold with von Frey monofilaments; type: in vivo, rats; settings: for development of mechanical allodynia (mechanical threshold, von Frey): vincristine 30 ug/kg/day for 12 days; for reversal of mechanical allodynia (von Frey), positive control: rats receiving vincristine, morphine 6 mg/kg i.p. acutely on each day of testing
# Description: Rats were administered a PARP Inhibitor, 2-[(2R)-2-methylpyrrolidin-2-yl]-1H-benzimidazole-4-carboxamide (Compound A) or 6-fluoro-2-(2-methylpyrrolidin-2-yl)-1H-benzimidazole-4-carboxamide (Compound B), at doses of 25 mg/kg/day or 50 mg/kg/day (i.p.), for two days prior to the initiation of vincristine. After two days or pre-dosing with the PARP inhibitor, two minipumps were implanted in rats. Vincristine was administered via a subcutaneous mini-osmotic pump that delivered 30 ug/kg/day (i.v) for twelve days. PARP Inhibitor, Compound A or Compound B, or vehicle was administered via a subcutaneous mini-osmotic pump that delivered 25 mg/kg/day, 50 mg/kg/day, or vehicle (i.p.) for twelve days. A positive control group of rats receiving vincristine were dosed acutely with morphine (6 mg/kg, i.p.) on each day of testing. A negative control group of rats received saline. Mechanical threshold was determined for all rats using von Frey monofilaments at 5, 9 and 12 days following initiation of vincristine administration (days 7, 11 and 14 of compound delivery, respectively) for Compound A, and at 3, 6 and 10 days following initiation of vincristine administration (days 5, 8 and 12 of compound delivery, respectively) for Compound B. Mechanical allodynia was observed on all testing days in rats treated with vincristine compared to the naïve group.
# Rats were administered a PARP Inhibitor, 2-[(2R)-2-methylpyrrolidin-2-yl]-1H-benzimidazole-4-carboxamide (Compound A), at doses of 25 mg/kg/day or 50 mg/kg/day (i.p., bid) for two days prior to the initiation of vincristine. After two days or pre-dosing with ABT-888, two minipumps were implanted in rats. Vincristine was administered via a subcutaneous mini-osmotic pump that delivered 30 ug/kg/day (i.v) for twelve days. Compound A or vehicle was administered via a subcutaneous mini-osmotic pump that delivered 25 mg/kg/day or 50 mg/kg/day (i.p.) for twelve days. A positive control group of rats receiving vincristine were dosed with acutely morphine (6 mg/kg, i.p.) on each day of testing. A negative control group of rats received saline. Mechanical threshold was determined for all rats using von Frey monofilaments on 5, 9 and 12 days following initiation of vincristine administration (days 7, 11 and 14 of compound delivery, respectively). Mechanical allodynia was observed on all testing days in rats treated with vincristine compared to the naïve group.
# Vincristine (i.v, […]) was administered by mini-pump for twelve days. Rats were divided into four groups: Group 1: Vehicle; Group 2: 1-(2-fluoro-5-((4-oxo-3,4,5,6,7,8-hexahydrophthalazin-1-yl)methyl)phenyl)pyrrolidine-2,5-dione (Compound D), 25 mg/kg/day; Group 3: Compound D, 50 mg/kg/day; Group 4: Vehicle+Positive control (morphine). Groups 2 and 3 were pretreated with their respective dose of Compound D (either 25 mg/kg or 50 mg/kg, ip) for two days prior to co-dosing with vincristine. Rats in the positive control group were dosed with vehicle by mini-pump and were acutely administered morphine on day of testing. Mechanical threshold was determined using von Frey monofilaments on days 5, 9, and 12 post-mini-pump implantation. Plasma and brain were collected on day 12. […] Anti-nociceptive efficacy was dose-dependent and observed on days 5, 9, and 12 (FIG. 10).
# PAR (pADPr) = experiment: PAR levels in glabrous hindpaw skin biopsies, ELISA measuring pADPr; type: in vivo, rats; settings: Example 4; skin biopsies on day 12 of Example 3; Compound A 25 mg/kg and 50 mg/kg; FIG. 8
# Description: Following behavioral testing on day 12 in Example 3, skin biopsies were taken from glabrous hindpaw skin from rats in the naïve, vincristine, and vincristine+Compound A groups (n=5 per group). PAR levels were assessed using ab ELISA assay to measure pADPr as previously described (Liu et al., 2008). PAR levels in skin were increased by vincristine, as compared to the saline group.
compound,measurement,setting,value
"C[C@@]1(c2nc3c(C(N)=O)cccc3[nH]2)CCCN1 [Compound C, 2-[(2S)-2-methylpyrrolidin-2-yl]-1H-benzimidazole-4-carboxamide]",development of mechanical allodynia (von Frey),"cisplatin model; weeks 3, 6 and 8",attenuated development of mechanical allodynia; also recorded: attenuation of cisplatin-mediated mechanical allodynia
same,development of heat hyperalgesia (latency to paw withdrawal from radiant heat source),cisplatin model; weeks 3 and 6,attenuated development of heat hyperalgesia; also recorded: attenuation of cisplatin-mediated heat hyperalgesia
same,development of cold hyperalgesia (number of paw lifts from cold plate),oxaliplatin model; week 6,attenuated development of cold hyperalgesia; also recorded: attenuation of oxaliplatin-mediated cold allodynia
same,development of mechanical allodynia (von Frey),oxaliplatin model; weeks 3 and 6,attenuated development of mechanical allodynia; also recorded: attenuation of oxaliplatin-mediated mechanical allodynia
same,cisplatin-induced decrease in amplitude in SNAP recording from the digital nerve,[1],prevented; also recorded: prophylactic effect
"CC1(c2nc3c(C(N)=O)cc(F)cc3[nH]2)CCCN1 (stereo not drawn) [Compound B, 6-fluoro-2-(2-methylpyrrolidin-2-yl)-1H-benzimidazole-4-carboxamide]","development of mechanical allodynia (mechanical threshold, von Frey)","[2]; Example 1, rats, Compound B 25 or 50 mg/kg/day i.p., 2 days pre-dosing then mini-pump 12 days, tested 3, 6 and 10 days after vincristine start, FIG. 2",attenuated development of mechanical allodynia; also recorded: prevention of vincristine-mediated pain
"CN1CC[C@]23c4c5ccc(O)c4O[C@H]2[C@@H](O)C=C[C@H]3[C@H]1C5 [Morphine, morphine, reference compound]","reversal of mechanical allodynia (von Frey), positive control",[2]; Example 1,fully reversed mechanical allodynia on all testing days
same,"reversal of mechanical allodynia (von Frey), positive control",[2]; Example 3,fully reversed mechanical allodynia on all testing days
"C[C@]1(c2nc3c(C(N)=O)cccc3[nH]2)CCCN1 [Compound A, 2-[(2R)-2-methylpyrrolidin-2-yl]-1H-benzimidazole-4-carboxamide]",vincristine-mediated PAR activation (PAR levels) in rat glabrous skin,PAR (pADPr),significantly reduced vincristine-mediated PAR activation; also recorded: prevention of vincristine-mediated increase in PAR levels in skin
same,"development of mechanical allodynia (mechanical threshold, von Frey)","[2]; Example 1, rats, Compound A 25 or 50 mg/kg/day i.p., 2 days pre-dosing then mini-pump 12 days, tested 5, 9 and 12 days after vincristine start, FIG. 1",attenuated development of mechanical allodynia; also recorded: prevention of vincristine-mediated pain
same,"development of mechanical allodynia (mechanical threshold, von Frey)","[2]; Example 3, rats, Compound A 25 or 50 mg/kg/day (i.p., bid pre-dosing 2 days, then mini-pump 12 days), tested days 5, 9 and 12, FIG. 7",attenuated development of mechanical allodynia; also recorded: prevention of vincristine-mediated pain
"O=C1CCC(=O)N1c1cc(Cc2n[nH]c(=O)c3c2CCCC3)ccc1F [Compound D, 1-(2-fluoro-5-((4-oxo-3,4,5,6,7,8-hexahydrophthalazin-1-yl)methyl)phenyl)pyrrolidine-2,5-dione]","vincristine-induced mechanical allodynia (mechanical threshold, von Frey)","[2]; Example 6, rats, vincristine i.v. by mini-pump 12 days, Compound D 25 or 50 mg/kg/day, 2 days ip pretreatment, days 5, 9 and 12 post-mini-pump implantation, FIG. 10",attenuated vincristine-induced mechanical allodynia; also recorded: dose-dependent; also recorded: prevention of vincristine-mediated pain

# From patent US20140093585A1, “PARP INHIBITORS FOR THE TREATMENT OF CIPN” (AbbVie Inc., priority 2011, published 2014)
